The test system of the first experiment is 786-O-Hif-Luc cells (luciferase gene driven by multiple HIF responsive elements). Put plainly: Luciferase Assay. In kind it is cell-based. Conditions: 24 h, 786-O-Hif-Luc cells, about 24 hours; read-out: Mean Luciferease EC50. The procedure: A pool of infected cells were then selected against 2 μg/mL of puromycin (P8833, Sigma) for 10 days followed by limited dilution to select single clones.
Each concentration was tested in triplicate. After about 24 hours, luciferase activity was determined using ONE-Glo Luciferase Assay Reagent (E6110, Promega) following the manufacturer's recommended procedure. EC50 were calculated by using Dotmatics software.
In general, EC50 refers to the concentration that produces a half-maximal response. For the compound `O[C@@H]1CCc2c(Oc3cc(F)cc(F)c3)ccc(C(F)(F)F)c21` [Compound 58, (R)-4-(3,5-Difluorophenoxy)-7-(trifluoromethyl)-2,3-dihydro-1H-inden-1-ol], the EC50 was 0.16 µM.
As for `N#Cc1cc(F)cc(Oc2ccc(S(=O)(=O)C(F)F)c3c2CCC3F)c1` (stereo not shown) [Compound 202, 3-((7-((Difluoromethyl)sulfonyl)-1-fluoro-2,3-dihydro-1H-inden-4-yl)oxy)-5-fluorobenzonitrile], the EC50 came out at 3.6 µM.
Still for that read-out and setting: to `CS(=N)(=O)c1ccc(Oc2cc(F)cc(F)c2)c2c1[C@H](O)C(F)(F)C2` (stereo partly drawn) [Compound 192, ((S)-7-(3,5-Difluorophenoxy)-2,2-difluoro-3-hydroxy-2,3-dihydro-1H-inden-4-yl)(imino)(methyl)-λ^6-sulfanone] belongs 0.28 µM; to `O=S(=O)(c1ccc(Oc2cc(F)cc(F)c2)c2c1CC(O)C2)C(F)F` (stereo not shown) [Compound 22, 4-((Difluoromethyl)sulfonyl)-7-(3,5-difluorophenoxy)-2,3-dihydro-1H-inden-2-ol], 1.29 µM.
Regarding `O=S(=O)(c1ccc(Oc2cccc3[nH]ncc23)c2c1[C@H](O)C(F)(F)C2)C(F)(F)F` [Compound 263, (S)-4-((1H-Indazol-4-yl)oxy)-2,2-difluoro-7-((trifluoromethyl)sulfonyl)-2,3-dihydro-1H-inden-1-ol], the EC50 was found to be 0.78 µM.
`O=S(=O)(CF)c1ccc(Oc2cc(F)cc(Cl)c2)c2c1[C@H](O)CC2` [Compound 61, (R)-4-(3-Chloro-5-fluorophenoxy)-7-((fluoromethyl)sulfonyl)-2,3-dihydro-1H-inden-1-ol]: the EC50 came to 0.11 µM.
With `O=S(=O)(CF)c1ccc(Oc2cc(F)cc(Cl)c2)c2c1[C@H](O)C(F)(F)C2` [Compound 65, (S)-4-(3-Chloro-5-fluorophenoxy)-2,2-difluoro-7-((fluoromethyl)sulfonyl)-2,3-dihydro-1H-inden-1-ol], the EC50 was determined as 0.006 µM.
Turning to `O=S(=O)(c1ccc(Oc2cc(F)cc(Cl)c2)c2c1[C@H](O)CC2)C(F)(F)F` [Compound 56, (R)-4-(3-Chloro-5-fluorophenoxy)-7-((trifluoromethyl)sulfonyl)-2,3-dihydro-1H-inden-1-ol], the EC50 is 0.068 µM.
Take `N#Cc1cc(F)cc(Oc2ccc(S(N)(=O)=O)c3c2[C@@H](F)[C@@H](F)[C@H]3O)c1` [Compound 336, (1R,2S,3S)-7-(3-cyano-5-fluoro-phenoxy)-1,2-difluoro-3-hydroxy-indane-4-sulfonamide]: the EC50 is 0.067 µM.
Same read-out and setting: in the case of `O=S(=O)(c1ccc(Oc2ccc(F)c(F)c2)c2c1C(O)CC2)C(F)(F)F` (stereo not shown) [Compound 214, 4-(3,4-Difluorophenoxy)-7-((trifluoromethyl)sulfonyl)-2,3-dihydro-1H-inden-1-ol] it was 1.27 µM; in that of `N#Cc1cccc(Oc2ccc(S(=O)(=O)C(F)F)c(C#N)c2Cl)c1` [Compound 40, 2-Chloro-3-(3-cyanophenoxy)-6-((difluoromethyl)sulfonyl)benzonitrile], 1.2 µM; in that of `CS(=O)(=O)c1ccc(Oc2cncc(Cl)c2)c2c1[C@H](O)C(F)(F)C2` [Compound 115, (S)-4-((5-Chloropyridin-3-yl)oxy)-2,2-difluoro-7-(methylsulfonyl)-2,3-dihydro-1H-inden-1-ol], 0.3 µM.
On the same count and under the same terms, to `O=S(=O)(c1ccc(Oc2c(F)ccc3[nH]ncc23)c2c1C(O)C(F)(F)C2)C(F)(F)F` (stereo not shown) [Compound 244, 2,2-Difluoro-4-((5-fluoro-1H-indazol-4-yl)oxy)-7-((trifluoromethyl)sulfonyl)-2,3-dihydro-1H-inden-1-ol] belongs 1.71 µM.
Take `CS(=O)(=O)c1ccc(Oc2cc(F)cc(Cl)c2)c2c1C(O)CC2` (stereo not shown) [Compound 90, 4-(3-Chloro-5-fluorophenoxy)-7-(methylsulfonyl)-2,3-dihydro-1H-inden-1-ol]: the EC50 is 0.85 µM.
Same read-out and setting: in the case of `Cc1c(Oc2cc(F)cc(C#N)c2)ccc(S(=O)(=O)C(F)(F)F)c1C=O` [Compound 145, 3-Fluoro-5-[3-formyl-2-methyl-4-(trifluoromethylsulfonyl)phenoxy]benzonitrile] it was 0.43 µM; in that of `N#Cc1cc(F)cc(Oc2ccc(S(=O)(=O)C(F)(F)F)cc2C#N)c1` [Compound 120, 2-(3-Cyano-5-fluorophenoxy)-5-((trifluoromethyl)sulfonyl)benzonitrile], 7.4 µM.
Take `Cc1c(S(C)(=O)=O)ccc(Oc2cc(F)cc(Cl)c2)c1C#N` [Compound 50, 6-(3-Chloro-5-fluorophenoxy)-2-methyl-3-(methylsulfonyl)benzonitrile]: the EC50 stood at 1.6 µM.
Regarding `O=S(=O)(c1ccc(Oc2cc(F)cc(Cl)c2)c(Br)c1CNCc1ccccc1)C(F)(F)F` [Compound 110, N-Benzyl-1-(2-bromo-3-(3-chloro-5-fluorophenoxy)-6-((trifluoromethyl)sulfonyl)phenyl)methanamine], the EC50 amounted to 6.5 µM.
Turning to `Cc1c(S(C)(=O)=O)ccc(Oc2cc(F)cc(Cl)c2)c1C(F)F` [Compound 53, 1-(3-Chloro-5-fluorophenoxy)-2-(difluoromethyl)-3-methyl-4-(methylsulfonyl)benzene], the EC50 was determined as 3.3 µM.
On the same count and under the same terms, in the case of `CS(=O)(=O)c1ccc(Oc2cc(C#N)cc(C(F)F)c2)c2c1C(O)CC2` (stereo not shown) [Compound 249, 3-(Difluoromethyl)-5-((1-hydroxy-7-(methylsulfonyl)-2,3-dihydro-1H-inden-4-yl)oxy)benzonitrile] it was 1.47 µM; in that of `N#Cc1cc(F)cc(Oc2ccc(S(=O)(=O)C(F)F)cc2C#N)c1` [Compound 134, 2-(3-Cyano-5-fluorophenoxy)-5-((difluoromethyl)sulfonyl)benzonitrile], 2.3 µM; in that of `O=C1CCc2c(Oc3cc(F)cc(Cl)c3)ccc(S(=O)(=O)C(F)F)c21` [Compound 18, 4-(3-chloro-5-fluorophenoxy)-7-((difluoromethyl)sulfonyl)-2,3-dihydro-1H-inden-1-one], 2.67 µM.
Still for that read-out and setting: to `CS(=O)(=O)c1ccc(Oc2cc(F)cc(Cl)c2)c(C(F)F)c1C#N` [Compound 92, 3-(3-Chloro-5-fluorophenoxy)-2-(difluoromethyl)-6-(methylsulfonyl)benzonitrile] belongs 0.49 µM; to `O=S(=O)(c1ccc(Oc2cccc3[nH]ncc23)c2c1C(O)C(F)(F)C2)C(F)(F)F` (stereo not shown) [Compound 243], 0.92 µM.
As to `O=S(=O)(c1ccc(Oc2ccc(F)c(Cl)c2)c2c1[C@H](O)CC2)C(F)F` [Compound 157, (1R)-4-(3-Chloro-4-fluoro-phenoxy)-7-(difluoromethylsulfonyl)indan-1-ol], the EC50 was 2.5 µM.
For the compound `O=S(=O)(CF)c1ccc(Oc2cc(F)cc(F)c2)c2c1C(O)CC2` [Compound 59, (R)-4-(3,5-Difluorophenoxy)-7-((fluoromethyl)sulfonyl)-2,3-dihydro-1H-inden-1-ol], the EC50 worked out at 0.09 µM.
Take `N#Cc1cc(F)cc(Oc2ccc(S(=O)(=O)C3CCC3)c3c2CC(F)(F)[C@H]3O)c1` [Compound 209, (S)-3-((7-(Cyclobutylsulfonyl)-2,2-difluoro-1-hydroxy-2,3-dihydro-1H-inden-4-yl)oxy)-5-fluorobenzonitrile]: the EC50 worked out at 1.9 µM.
As for `NCc1c(S(=O)(=O)C(F)F)ccc(Oc2cc(F)cc(Cl)c2)c1Br` [Compound 85, (2-Bromo-3-(3-chloro-5-fluorophenoxy)-6-((difluoromethyl)sulfonyl)phenyl)methanamine], the EC50 worked out at 11.8 µM.
Still for that read-out and setting: to `O=Cc1c(S(=O)(=O)C(F)(F)F)ccc(Oc2cc(F)cc(Cl)c2)c1Cl` [Compound 112, 2-Chloro-3-(3-chloro-5-fluorophenoxy)-6-((trifluoromethyl)sulfonyl)benzaldehyde] belongs 0.34 µM; to `O=S(=O)(c1ccc(Oc2cc(F)cc(Cl)c2)c(Cl)c1CCl)C(F)F` [Compound 46, 2-Chloro-1-(3-chloro-5-fluorophenoxy)-3-(chloromethyl)-4-((difluoromethyl)sulfonyl)benzene], 8.1 µM.

The same experiment, now with this note: 24 h, read-out: Mean Luciferease EC50.
For the compound `CS(=O)(=O)c1ccc(Oc2cc(F)cc(C#N)c2)c2c1[C@H](O)[C@H](F)C2` [Compound 231, 3-Fluoro-5-(((1S,2R)-2-fluoro-1-hydroxy-7-(methylsulfonyl)-2,3-dihydro-1H-inden-4-yl)oxy)benzonitrile], the EC50 was determined as 0.036 µM.
Still for that read-out and setting: to `NS(=O)(=O)c1ccc(Oc2cc(F)cc(F)c2)c2c1[C@H](O)C(F)(F)C2` [Compound 256, (S)-7-(3,5-Difluorophenoxy)-2,2-difluoro-3-hydroxy-2,3-dihydro-1H-indene-4-sulfonamide] belongs 0.049 µM; to `CS(=O)(=O)c1ccc(Oc2cc(F)cc(C#N)c2)c2c1C(O)C(F)(F)C2` (stereo not shown) [Compound 223, 3-((2,2-Difluoro-1-hydroxy-7-(methylsulfonyl)-2,3-dihydro-1H-inden-4-yl)oxy)-5-fluorobenzonitrile], 0.063 µM; to `N#Cc1cc(Cl)cc(Oc2ccc(S(=O)(=O)CF)c3c2CC(F)(F)[C@H]3O)c1` [Compound 167, (S)-3-Chloro-5-((2,2-difluoro-7-((fluoromethyl)sulfonyl)-1-hydroxy-2,3-dihydro-1H-inden-4-yl)oxy)benzonitrile], 0.016 µM.
Still for that read-out and setting: in the case of `CS(=O)(=O)c1ccc(Oc2cc(F)cc(C#N)c2)c2c1[C@H](N)C(F)(F)C2` [Compound 165, 3-[(1S)-1-Amino-2,2-difluoro-7-methylsulfonyl-indan-4-yl]oxy-5-fluoro-benzonitrile] it was 0.24 µM; in that of `N#Cc1cc(F)cc(Oc2ccc(S(=O)(=O)C(F)(F)F)c3c2CC[C@H]3O)c1` [Compound 57, (R)-3-Fluoro-5-((1-hydroxy-7-((trifluoromethyl)sulfonyl)-2,3-dihydro-1H-inden-4-yl)oxy)benzonitrile], 0.11 µM.
As for `N#Cc1cc(F)cc(Oc2ccc(S(N)(=O)=O)c3c2[C@H](F)C(F)(F)[C@H]3O)c1` [Compound 339, (1S,3S)-7-(3-cyano-5-fluoro-phenoxy)-1,2,2-trifluoro-3-hydroxy-indane-4-sulfonamide], the EC50 amounted to 0.25 µM.

Values taken from US10597366B2, “Aryl ethers and uses thereof” (Peloton Therapeutics, Inc., priority 2013, dated 2020).
